Read-outs that look alike come from different tables or passages of the source.
How the values were obtained:
[1] = target: T1, MMP-13 (Homo sapiens, UniProt P45452); assay: fluorometric MMP inhibition assay, MMP-13 catalytic domain; format: biochemical; conditions: for Ligand Efficiency MMP-13: calculated from IC50 values of Table 2; for IC50: catalytic domain, fluorometric assay, mean ± SEM of at least 3 experiments; for Selectivity MMP-2/13 / Selectivity MMP-8/13 / Selectivity MMP-9/13: ratio of IC50 values of Table 2
T1 construct: Catalytic domains of MMP-2, -8, -9, and -13 were obtained from Enzo Life Sciences; purchased Enzo Life Sciences
Procedure: (§1) Catalytic domains of MMP-2, -8, -9, and -13 were obtained from Enzo Life Sciences. 96-well white microtiter plates (Corning, NBS) were used to carry out the assays (in triplicate). The assay measurements were performed by preparing dilutions to six different concentrations (1 nM–100 µM) of each inhibitor in a fluorometric assay buffer (50 mM Tris·HCl pH 7.5, 200 mM NaCl, 1 mM CaCl2, 1 µM ZnCl2, 0.05% Brij-35, and 1% DMSO). Incubation of the enzyme and inhibitor solutions occurred for 15 min at room temperature; fluorogenic substrate solution (OmniMMP® = Mca-Pro-Leu-Gly-Leu-Dpa-Ala-Arg-NH2, Enzo Life Sciences, 2.5 µM final concentration or OmniMMP®RED = TQ3-GABA-Pro-Cha-Abu-Smc-His-Ala-Dab (6′-TAMRA)-Ala-Lys-NH2, Enzo Life Sciences, and 1 µM final concentration) was subsequently added. The assay was incubated for 2–4 h at 37 °C, after which a Perkin–Elmer Victor V3 plate reader was used to measure fluorescence (λex= 340 nm, λem = 405 nm or λex = 545 nm, λem = 572 nm). Included in the assay were control wells lacking any inhibitor. MMP activity was thus determined and expressed in relative fluorescence units (RFU). Percent inhibition was calculated from control wells and IC50 values were determined using GraphPad Prism 5.0 and are shown as mean ± SEM of at least three independent measurements, which were performed in triplicate.

[2] = target: T2, MMP-9 (Homo sapiens, UniProt P14780); assay: fluorometric MMP inhibition assay, MMP-9 catalytic domain; format: biochemical; conditions: for IC50: catalytic domain, fluorometric assay, mean ± SEM of at least 3 experiments; for Ligand Efficiency MMP-9: calculated from IC50 values of Table 2
T2 construct: Catalytic domains of MMP-2, -8, -9, and -13 were obtained from Enzo Life Sciences; purchased Enzo Life Sciences
T2 sequence (P14780 107-444 limits assumed): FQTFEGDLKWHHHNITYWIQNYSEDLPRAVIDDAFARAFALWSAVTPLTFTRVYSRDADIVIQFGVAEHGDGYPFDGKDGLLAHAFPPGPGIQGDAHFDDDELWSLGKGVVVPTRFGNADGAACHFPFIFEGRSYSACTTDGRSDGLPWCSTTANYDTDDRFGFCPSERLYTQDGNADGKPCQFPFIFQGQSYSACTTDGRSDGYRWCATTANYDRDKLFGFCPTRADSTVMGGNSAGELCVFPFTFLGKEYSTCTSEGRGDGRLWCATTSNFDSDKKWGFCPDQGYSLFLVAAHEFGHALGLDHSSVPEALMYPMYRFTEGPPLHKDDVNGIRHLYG
Procedure: as §1

[3] = target: T3, MMP-8 (Homo sapiens, UniProt P22894); assay: fluorometric MMP inhibition assay, MMP-8 catalytic domain; format: biochemical; conditions: for Ligand Efficiency MMP-8: calculated from IC50 values of Table 2; for IC50: catalytic domain, fluorometric assay, mean ± SEM of at least 3 experiments
T3 construct: Catalytic domains of MMP-2, -8, -9, and -13 were obtained from Enzo Life Sciences; purchased Enzo Life Sciences
T3 sequence (P22894 100-262 limits assumed): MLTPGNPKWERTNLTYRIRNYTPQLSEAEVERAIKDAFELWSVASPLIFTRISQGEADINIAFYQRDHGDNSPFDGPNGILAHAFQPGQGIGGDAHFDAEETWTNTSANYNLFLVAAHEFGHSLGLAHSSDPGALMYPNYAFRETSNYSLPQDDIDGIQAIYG
Procedure: as §1

[4] = target: T4, MMP-2 (Homo sapiens, UniProt P08253); assay: fluorometric MMP inhibition assay, MMP-2 catalytic domain; format: biochemical; conditions: for Ligand Efficiency MMP-2: calculated from IC50 values of Table 2; for IC50: catalytic domain, fluorometric assay, mean ± SEM of at least 3 experiments; for selectivity toward MMP-8 (MMP-2 inhibition versus MMP-8): ratio IC50 MMP-8 / IC50 MMP-2
T4 construct: Catalytic domains of MMP-2, -8, -9, and -13 were obtained from Enzo Life Sciences; purchased Enzo Life Sciences
T4 sequence (P08253 110-446 limits assumed): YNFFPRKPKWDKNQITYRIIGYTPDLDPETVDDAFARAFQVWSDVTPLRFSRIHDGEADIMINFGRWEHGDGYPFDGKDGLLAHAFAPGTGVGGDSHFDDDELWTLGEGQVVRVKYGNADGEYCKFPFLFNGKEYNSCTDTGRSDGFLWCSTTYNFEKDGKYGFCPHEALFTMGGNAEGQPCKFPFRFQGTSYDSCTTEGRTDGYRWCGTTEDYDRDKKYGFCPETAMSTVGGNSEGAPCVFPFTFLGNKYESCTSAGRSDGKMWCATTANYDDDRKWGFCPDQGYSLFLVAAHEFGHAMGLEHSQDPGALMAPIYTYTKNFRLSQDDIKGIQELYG
Procedure: as §1

[5] = target: T2, MMP-9; parameters: method as in PMID 21714093; conditions: inhibition values from literature; cited from earlier work

SMILES	Ligand Efficiency MMP-13 [1]	IC50 [1] [µM]	Selectivity MMP-2/13 [1]	Selectivity MMP-8/13 [1]	Selectivity MMP-9/13 [1]	IC50 [2] [µM]	Ligand Efficiency MMP-8 [3]	IC50 [3] [µM]	Ligand Efficiency MMP-2 [4]	IC50 [4] [µM]	Ligand Efficiency MMP-9 [2]	melting point [°C]	selectivity toward MMP-8 (MMP-2 inhibition versus MMP-8) [4]	IC50 [5] [µM]
O=P(O)(O)C(Nc1nc2ccccc2s1)P(=O)(O)O [Compound 1, (Benzo[d]thiazol-2-amino)methyl-1,1-bisphosphonic acid]	0.38	6.5 ± 1.2	1.95	12.97	>15.4	> 100	0.30	84.3 ± 2.1	0.36	12.7 ± 0.8				
O=P(O)(O)C(Nc1nc2ccc(F)cc2s1)P(=O)(O)O [Compound 2, (6-fluorobenzo[d]thiazol-2-amino)methyl-1,1-bisphosphonic acid]	0.37	4.25 ± 0.35	2.12	7.55	6.24	26.5 ± 2.7	0.31	32.1 ± 1.9	0.35	9 ± 0.9	0.31	> 250		
O=P(O)(O)C(Nc1nc2ccc(Cl)cc2s1)P(=O)(O)O [Compound 3, (6-chlorobenzo[d]thiazol-2-amino)methyl-1,1-bisphosphonic acid]	0.41	1.23 ± 0.12	2.15	11.87	15.20	18.7 ± 2.9	0.33	14.6 ± 0.2	0.38	2.64 ± 0.04	0.32	> 250		
O=[N+]([O-])c1ccc2nc(NC(P(=O)(O)O)P(=O)(O)O)sc2c1 [Compound 4, (6-nitrobenzo[d]thiazol-2-amino)methyl-1,1-bisphosphonic acid]	0.35	2.25 ± 0.15	2.00	4.00	3.42	7.7 ± 1.1	0.31	9 ± 0.4	0.33	4.5 ± 0.5	0.32	> 250		
O=C(Nc1ccc2nc(NC(P(=O)(O)O)P(=O)(O)O)sc2c1)c1ccccc1 [Compound 5, (6-benzamidobenzo[d]thiazol-2-amino)methyl-1,1-bisphosphonic acid]	0.30	0.67 ± 0.025	1.73	13.43	9.40	6.3 ± 0.9	0.25	9 ± 0.3	0.29	1.16 ± 0.18	0.25	> 250	7.76	
O=C(Nc1ccc2nc(NC(P(=O)(O)O)P(=O)(O)O)sc2c1)c1ccc(Br)cc1 [Compound 6, (6-(4-bromobenzamido)benzo[d]thiazol-2-amino)methyl-1,1-bisphosphonic acid]	0.24	6.7 ± 0.5	2.06	8.96	>14.92	> 100	0.19	60 ± 2.6	0.22	13.8 ± 0.9		> 250		
O=C(Nc1ccc2nc(NC(P(=O)(O)O)P(=O)(O)O)sc2c1)c1ccc([N+](=O)[O-])cc1 [Compound 7, (6-(4-nitrobenzamido)benzo[d]thiazol-2-amino)methyl-1,1-bisphosphonic acid]	0.28	0.5 ± 0.01	1.96	13.40	10.80	5.4 ± 1.1	0.23	6.7 ± 0.8	0.27	0.98 ± 0.16	0.23	> 250	6.84	
O=C(Cc1ccccc1)Nc1ccc2nc(NC(P(=O)(O)O)P(=O)(O)O)sc2c1 [Compound 8, (6-(2-phenylacetamido)benzo[d]thiazol-2-amino)methyl-1,1-bisphosphonic acid]	0.24	9.3 ± 0.7	0.26	1.16	2.37	22 ± 8	0.23	10.8 ± 3.1	0.27	2.4 ± 0.5	0.22	> 250		

Now from value to compound, other results behind:

Ligand Efficiency MMP-13 [1]	IC50 [1] [µM]	Selectivity MMP-2/13 [1]	Selectivity MMP-8/13 [1]	Selectivity MMP-9/13 [1]	IC50 [2] [µM]	Ligand Efficiency MMP-8 [3]	IC50 [3] [µM]	Ligand Efficiency MMP-2 [4]	IC50 [4] [µM]	Ligand Efficiency MMP-9 [2]	melting point [°C]	selectivity toward MMP-8 (MMP-2 inhibition versus MMP-8) [4]	SMILES	IC50 [5] [µM]
0.23	11.5 ± 1.9	0.26	1.30	1.18	13.6 ± 1.4	0.23	15 ± 5	0.26	3 ± 0.4	0.23	> 250		O=C(Nc1ccccc1)Nc1ccc2nc(NC(P(=O)(O)O)P(=O)(O)O)sc2c1 [Compound 9, (6-(3-phenylureido)benzo[d]thiazol-2-amino)methyl-1,1-bisphosphonic acid]	
0.23	10.9 ± 2.4	0.16	1.10	0.50	5.4 ± 1.6	0.23	12 ± 0.4	0.26	1.69 ± 0.08	0.24	> 250		O=C1c2ccccc2C(=O)N1c1ccc2nc(NC(P(=O)(O)O)P(=O)(O)O)sc2c1 [Compound 10, (6-(1,3-dioxoisoindolin-2-yl)benzo[d]thiazol-2-amino)methyl-1,1-bisphosphonic acid]	
0.23	61.9 ± 1.3	0.15	0.87	>1.62	> 100	0.23	54 ± 6	0.28	9.4 ± 2		> 250		CC(N)C(=O)Nc1ccc2nc(NC(P(=O)(O)O)P(=O)(O)O)sc2c1 (stereo not drawn) [Compound 11]	
0.40	0.82 ± 0.06	5.73	25.98	44.63	36.6 ± 1.8	0.31	21.3 ± 1.7	0.35	4.7 ± 1.1	0.29	> 250		O=P(O)(O)C(CNc1nc2ccc(Cl)cc2s1)P(=O)(O)O [Compound 12, (6-chlorobenzo[d]thiazol-2-amino)ethyl-1,1-bisphosphonic acid]	
0.34	0.6 ± 0.3	0.23	0.67	>166.67		0.35		0.38					O=P(O)(O)C(NS(=O)(=O)c1ccc(-c2ccccc2)cc1)P(=O)(O)O [ML115, reference compound]	> 100
